According to article PMC6379152 (Cellular microbiology, 2018):

Test system: rHSGGT1 (HSGGT1)
Assay: pNA release at […] nm, Michaelis-Menten fit
Format: biochemical, Helicobacter saguini
Details: 20 mM glycylglycine as acceptor; Tris-HCl pH 8; 37 C; mean of three batches

Structure (SMILES): N[C@@H](CCC(=O)Nc1ccc([N+](=O)[O-])cc1)C(=O)O [GpNA, L-y-glutamyl-p nitroanilide]
- Km: 12.3 ± 2.35 µM
